Reference: patent US11401278B2, “Macrocyclic indole derivatives” (The Broad Institute, Inc., priority 2017, dated 2022)
Like-named read-outs stand apart in the source and are kept apart here.

What was measured:
SUDHL5 [1] = assay: Antiproliferation assay (Assay 7), SUDHL5; type: cell-based; settings: CellTiter-Glo, median, read-out: Antiproli SUDHL5 [M] (median) IC50
Method in brief: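 Proliferation was read by CellTiter-Glo luminescence after 72 hours of compound treatment at 37° C. The read was referenced to a parallel plate measured at time zero.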

SUDHL5 [2] = assay: Induction of cytotoxicity (Assay 6), SUDHL5; settings: read-out: Cytotox SUDHL5 [M] (median) IC50, CellTiter-Glo, 5 hours, SUDHL5
SUDHL10 [3] = assay: Induction of caspase-3/7 activity (Assay 4), SUDHL10; type: cell-based; settings: caspase-3/7 induction, median
Method in brief: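 DLBCL cells were exposed to compounds for 3 hours at 37 °C, then caspase-3/7 activation was read with Caspase-Glo 3/7 reagent. After subtracting medium-only background, EC50s were derived with fixed C0=1 and the reference compound's maximal induction as plateau.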

BCL-2 = BCL-2 (Homo sapiens (Human), UniProt P10415); assay: Protein-protein interaction assay BCL-2/Bad BH3 peptide (BCL-2 assay, TR-FRET); type: binding; settings: His-BCL-2 / Bad BH3 peptide, median
Description: Assay 3 Protein-Protein Interaction Assay: BCL-2/Bad BH3 Peptide (BCL-2 Assay)
The dose-dependent inhibition by the compounds described in this invention of the interaction between BCL-2 and the BH3 domain of Bad (both human) was determined using a steady state binding competition assay with time-resolved fluorescence energy transfer (TR-FRET) readout. For that purpose BCL-2 (amino acids 1-211, C-terminal fused to a hexahistidine (6×His) tag (SEQ ID 5) and a synthetic Bad BH3-derived peptide of sequence Biotin-PEG2-PEG2-NLWAAQRYGRELRR-Nle-SDEFVDSFKK-amide (SEQ ID 4) served as protein receptor and tracer ligand respectively. The recombinant BCL-2 protein (expressed in E. coli) was purchased from BPS Bioscience (San Diego, Calif., USA). The Bad BH3-derived peptide can be obtained from e.g. Biosyntan (Berlin, Germany).
In the assay 11 different concentrations of each compound (0.1 nM, 0.33 nM, 1.1 nM, 3.8 nM, 13 nM, 44 nM, 0.15 μM, 0.51 μM, 1.7 μM, 5.9 μM and 20 μM) were typically measured as duplicates in the same microtiter plate. For that, 100-fold concentrated DMSO solutions were prepared by serial dilutions (1:3.4) of a 2 mM stock solution in a clear, 384-well microtiter plate (Greiner Bio-One, Frickenhausen, Germany). From there, 50 nl were transferred in a dark test plate (Greiner Bio-One, Frickenhausen, Germany). The assay was initiated by addition of 2 μl of a 2.5-fold concentrated His-BCL-2 solution (usually for a 1 nM end concentration in 5 μl reaction volume) in aqueous assay buffer [50 mM Tris/HCl pH 7, 100 mM sodium chloride (NaCl), 50 mM potassium fluoride (KF), 0.005% Tween-20, 2 mM DTT, 0.1% bovine gamma globulin (BGG)] to the compounds in the assay plate. This was followed by a 10-minute incubation step at 22° C. for pre-equilibration of the putative complex between His-BCL-2 and the compounds. After that, 3 μl of a 1.67-fold concentrated solution (in assay buffer) consisting of Bad BH3-derived peptide (1 nM end concentration) and TR-FRET detection reagents [1.67 nM anti-His-Eu cryptate and 1.67 nM streptavidin-XL665 (both from Cisbio Bioassays, Codolet, France)], were added.
The mixture was incubated in the dark for one hour at 22° C. and then overnight at 4° C. The formation of BCL-2/Bad complexes was determined by measuring the resonance energy transfer of the anti-His-Eu-cryptate antibody to the streptavidin-XL665 present in the reaction. For that purpose, the fluorescence emission at 620 nm and 665 nm after excitation at 330-350 nm was measured in a TR-FRET measuring instrument, for instance a Rubystar or a Pherastar (both from BMG Lab Technologies, Offenburg, Germany) or a Viewlux (Perkin-Elmer). The ratio of the emission at 665 nm and at 622 nm was used as indicator of the amount of BCL-2/Bad complexes present.
The resulting data (ratio) were normalized, taking 0% inhibition as the mean value of control measurements (usually 32 data points) where all reagents were included. In this case 50 nl DMSO were used instead of compounds. A 100% inhibition corresponded to the mean value of control measurements (usually 32 data points) where all reagents except BCL-2 were included. IC50 values were determined by regression analysis based on a 4 parameter equation (minimum, maximum, IC50, Hill; Y=Max+(Min−Max)/(1+(X/IC50)^HiII) using the Screener Software (Genedata).

SUDHL10 [4] = assay: Induction of cytotoxicity (Assay 6), SUDHL10; settings: read-out: Cytotox SUDHL10 [M] (median) IC50, CellTiter-Glo, 5 hours, SUDHL10

BCL-2, sequence (P10415 other isoform, or with tags, fused parts or gaps): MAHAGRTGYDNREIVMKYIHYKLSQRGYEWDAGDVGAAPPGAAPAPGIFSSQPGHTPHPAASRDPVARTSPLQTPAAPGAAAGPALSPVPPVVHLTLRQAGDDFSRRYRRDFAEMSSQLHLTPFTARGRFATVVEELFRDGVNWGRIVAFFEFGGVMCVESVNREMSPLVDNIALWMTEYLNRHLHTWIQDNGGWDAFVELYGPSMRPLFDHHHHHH

| Compound | IC50 (SUDHL5 [1]; Homo sapiens, SU-DHL-5, 72 h) [M] | EC50 (SUDHL10 [3]; Homo sapiens, SU-DHL10, 3 h) [nM] | IC50 (BCL-2) [nM] | IC50 (SUDHL5 [2]; Homo sapiens, SU-DHL-5, 5 h) [M] | IC50 (SUDHL10 [4]; Homo sapiens, SU-DHL10, 5 h) [M] | IC50 (SUDHL5 [1]; 72 hours) [M] | IC50 (SUDHL5 [2]) [M] | EC50 (SUDHL10 [3]; 3 hours) [nM] | IC50 (SUDHL10 [4]) [M] |
| --- | --- | --- | --- | --- | --- | --- | --- | --- | --- |
| Cc1c2c(nn1C)CN(C)S(=O)(=O)CCCn1c(C(=O)O)c(CCCOc3cccc4ccccc34)c3ccc(F)c-2c31 (racemic) [Example 26, (rac)-13-Fluoro-8,11,12-trimethyl-1-(3-(naphthalen-1-yloxy)propyl)-5,6,9,11-tetrahydro-4H,8H-pyrazolo[3′,4′:4,5][1]thia[2,8]diazacycloundecino[6,7,8-hi]indole-2-carboxylic acid 7,7-dioxide] | 1.4e-06 | 3500 | > 20000 | 1.8e-06 | 3.4e-06 | – | – | – | – |
| Cc1c2c(nn1C)CN(C)S(=O)(=O)CCCn1c(C(=O)O)c(CCCOc3cccc4c3CCC4)c3ccc(F)c-2c31 (racemic) [Example 27, (rac)-1-(3-((2,3-Dihydro-1H-inden-4-yl)oxy)propyl)-13-fluoro-8,11,12-trimethyl-5,6,9,11-tetrahydro-4H,8H-pyrazolo[3′,4′:4,5][1]thia[2,8]diazacycloundecino[6,7,8-hi]indole-2-carboxylic acid 7,7-dioxide] | 7.8e-07 | 2400 | > 20000 | 8.7e-07 | 2.1e-06 | – | – | – | – |
| Cc1cc(OCCCc2c(C(=O)O)n3c4c(c(F)ccc24)-c2c(nn(C)c2C)CN(C)S(=O)(=O)CCC3)cc(C)c1Cl (racemic) [Example 28, (rac)-1-(3-(4-Chloro-3,5-dimethylphenoxy)propyl)-13-fluoro-8,11,12-trimethyl-5,6,9,11-tetrahydro-4H,8H-pyrazolo[3′,4′:4,5][1]thia[2,8]diazacycloundecino[6,7,8-hi]indole-2-carboxylic acid 7,7-dioxide] | 1.2e-06 | 11000 | > 20000 | 3.1e-06 | 8e-06 | – | – | – | – |
| Cc1c2c(nn1C)CN(C)S(=O)(=O)CCCn1c(C(=O)O)c(CCCOc3cccc4c3CCCC4)c3ccc(F)c-2c31 (racemic) [Example 29, (rac)-13-Fluoro-8,11,12-trimethyl-1-(3-((5,6,7,8-tetrahydronaphthalen-1-yl)oxy)propyl)-5,6,9,11-tetrahydro-4H,8H-pyrazolo[3′,4′:4,5][1]thia[2,8]diazacycloundecino[6,7,8-hi]indole-2-carboxylic acid 7,7-dioxide] | 5e-07 | 4500 | > 20000 | 1.8e-06 | 3.8e-06 | – | – | – | – |
| CCc1c2c(nn1C)CN(C)S(=O)(=O)CCCn1c(C(=O)O)c(CCCOc3cccc4ccccc34)c3ccc(F)c-2c31 (racemic) [Example 31, (rac)-12-Ethyl-13-fluoro-8,11-dimethyl-1-(3-(naphthalen-1-yloxy)propyl)-5,6,9,11-tetrahydro-4H,8H-pyrazolo[3′,4′:4,5][1]thia[2,8]diazacycloundecino[6,7,8-hi]indole-2-carboxylic acid 7,7-dioxide] | 5.3e-07 | 1900 | > 20000 | 9.3e-07 | 1.9e-06 | – | – | – | – |
| CCc1c2c(nn1C)CN(C)S(=O)(=O)CCCn1c(C(=O)O)c(CCCOc3cccc4c3CCC4)c3ccc(F)c-2c31 (racemic) [Example 32, (rac)-1-(3-((2,3-Dihydro-1H-inden-4-yl)oxy)propyl)-12-ethyl-13-fluoro-8,11-dimethyl-5,6,9,11-tetrahydro-4H,8H-pyrazolo[3′,4′:4,5][1]thia[2,8]diazacycloundecino[6,7,8-hi]indole-2-carboxylic acid 7,7-dioxide] | 3.9e-07 | 1100 | > 20000 | 7.4e-07 | 1.2e-06 | – | – | – | – |
| Cc1c2c(nn1C)CN(C1CC1)S(=O)(=O)CCCn1c(C(=O)O)c(CCCOc3cccc4cc(F)ccc34)c3ccc(Cl)c-2c31 (racemic) [Example 41, (rac)-4-chloro-14-cyclopropyl-7-{3-[(6-fluoro-1-naphthyl)oxy]propyl}-2,3-dimethyl-11,12,14,15-tetrahydro-2H,10H-pyrazolo[3′,4′:4,5][1,2,8]thiadiazacycloundecino[6,7,8-hi]indole-8-carboxylic acid 13,13-dioxide] | – | – | 19000 | – | – | 1.2e-06 | 9.7e-07 | 1600 | 1.7e-06 |

The next lines start with results.

| IC50 (SUDHL5 [1]; Homo sapiens, SU-DHL-5, 72 h) [M] | EC50 (SUDHL10 [3]; Homo sapiens, SU-DHL10, 3 h) [nM] | IC50 (BCL-2) [nM] | Compound | IC50 (SUDHL5 [2]; Homo sapiens, SU-DHL-5, 5 h) [M] | IC50 (SUDHL10 [4]; Homo sapiens, SU-DHL10, 5 h) [M] | IC50 (SUDHL5 [1]; 72 hours) [M] | IC50 (SUDHL5 [2]) [M] | EC50 (SUDHL10 [3]; 3 hours) [nM] | IC50 (SUDHL10 [4]) [M] |
| --- | --- | --- | --- | --- | --- | --- | --- | --- | --- |
| 8.2e-07 | 3600 | > 20000 | CCc1c2c(nn1C)CN(C)S(=O)(=O)CCCn1c(C(=O)O)c(CCCOc3cccc4c3CCCC4)c3ccc(F)c-2c31 (racemic) [Example 34, (rac)-12-Ethyl-13-fluoro-8,11-dimethyl-1-(3-((5,6,7,8-tetrahydronaphthalen-1-yl)oxy)propyl)-5,6,9,11-tetrahydro-4H,8H-pyrazolo[3′,4′:4,5][1]thia[2,8]diazacycloundecino[6,7,8-hi]indole-2-carboxylic acid 7,7-dioxide] | 1.4e-06 | 2.4e-06 | – | – | – | – |
| 7.6e-07 | 2600 | > 20000 | CCc1c2c(nn1C)CN(C)S(=O)(=O)CCCn1c(C(=O)O)c(CCCOc3ccc(F)c4ccccc34)c3ccc(F)c-2c31 (racemic) [Example 35, (rac)-12-Ethyl-13-fluoro-1-(34(4-fluoronaphthalen-1-yl)oxy)propyl)-8,11-dimethyl-5,6,9,11-tetrahydro-4H,8H-pyrazolo[3′,4′:4,5][1]thia[2,8]diazacycloundecino[6,7,8-hi]indole-2-carboxylic acid 7,7-dioxide] | 1.6e-06 | 2.7e-06 | – | – | – | – |
| 9.2e-07 | 1700 | > 20000 | Cc1c2c(nn1C)C(CCN1CCOCC1)N(C)S(=O)(=O)CCCn1c(C(=O)O)c(CCCOc3cccc4ccccc34)c3cccc-2c31 (racemic) [Example 44, (rac)-2,3,14-trimethyl-15-[2-(rac)-(morpholin-4-yl)ethyl]-7-[3-(1-naphthyloxy)propyl]-11,12,14,15-tetrahydro-2H,10H-pyrazolo[3′,4′:4,5][1,2,8]thiadiazacycloundecino[6,7,8-hi]indole-8-carboxylic acid 13,13-dioxide (Mixture of Stereoisomers)] | 1.3e-06 | 2.6e-06 | – | – | – | – |
| 6.3e-07 | 320 | > 20000 | Cc1c2c(nn1C)C(N1CCOCC1)CCN(C)S(=O)(=O)CCCn1c(C(=O)O)c(CCCOc3cccc4cc(F)ccc34)c3ccc(Cl)c-2c31 (racemic) [Example 47, (rac)-15-chloro-1-(3-((6-fluoronaphthalen-1-yl)oxy)propyl)-8,13,14-trimethyl-11-(rac)-morpholino-5,6,9,10,11,13-hexahydro-4H,8H-pyrazolo[3′,4′:6,7][1]thia[2,10]diazacyclotridecino[8,9,10-hi]indole-2-carboxylic acid 7,7-dioxide (Mixture of Stereoisomers)] | 3.6e-07 | 3.4e-07 | – | – | – | – |
